{
  "source": "patent US6987111B2",
  "about": "(Alkermes Controlled Therapeutics, II, priority 2003, dated 2006)",
  "test": "Pharmacokinetic evaluation in rats following single subcutaneous doses",
  "format": "in vivo",
  "conditions": "male Sprague-Dawley rats, single SC injection of 40 mg in 0.75 mL aqueous diluent, plasma 2 h to 14 d",
  "protocol": "Species and Strain: Sprague-Dawley rats. Male; 450+/−50 grams.\nStudy Groups: 4 Groups. 12 subjects\nRoute of Injection: Subcutaneous (SC) injection into the interscapular region. Injection Vehicle: Aqueous Diluent: Water, 3% CMC low viscosity, 0.1% Tween 20, in 0.9% NaCl Dose Volumes: Dose suspensions were formulated as follows: • Group A: 20 mg powder in 0.75 mL Diluent • Group B: 40 mg microparticles in 0.75 mL Diluent • Group C: 20 mg powder in 0.75 mL Diluent • Group D: 50 mg powder in 0.75 mL Diluent Blood Collection: Blood samples were collected via a lateral tail vein after anesthesia with Halothane. A syringe without an anticoagulant was used for the blood collection, then the whole blood was transferred to tubes containing K2 EDTA and mixing beads (Microtainer®; MFG# BD365974). The blood samples were processed (the tubes are inverted 15–20 times and centrifuged for 2 minutes at >14,000 g's) to separate plasma. The plasma samples prepared in this manner were transferred to labeled plain tubes (Microtainer®; MFG# BD5962) and stored frozen at <−70° C. Blood Volumes: At least 250 μL blood for each time point during the first 24 hours and 400 μL for each time point thereafter.",
  "data": [
    {"substance": "haloperidol pamoate [pamoate salt]", "values": [
      {"measurement": "extended release profile (plasma concentrations over time)", "result": "good to excellent extended release profiles"}
    ]}
  ]
}
